# Biological target: T1, COL3 (Mus musculus, UniProt P08121)
# T1 construct: from tissue; host or cells: infarcted left-ventricular myocardium of female CD1 mice, in vivo
# T1 sequence (P08121 155-1219 limits assumed): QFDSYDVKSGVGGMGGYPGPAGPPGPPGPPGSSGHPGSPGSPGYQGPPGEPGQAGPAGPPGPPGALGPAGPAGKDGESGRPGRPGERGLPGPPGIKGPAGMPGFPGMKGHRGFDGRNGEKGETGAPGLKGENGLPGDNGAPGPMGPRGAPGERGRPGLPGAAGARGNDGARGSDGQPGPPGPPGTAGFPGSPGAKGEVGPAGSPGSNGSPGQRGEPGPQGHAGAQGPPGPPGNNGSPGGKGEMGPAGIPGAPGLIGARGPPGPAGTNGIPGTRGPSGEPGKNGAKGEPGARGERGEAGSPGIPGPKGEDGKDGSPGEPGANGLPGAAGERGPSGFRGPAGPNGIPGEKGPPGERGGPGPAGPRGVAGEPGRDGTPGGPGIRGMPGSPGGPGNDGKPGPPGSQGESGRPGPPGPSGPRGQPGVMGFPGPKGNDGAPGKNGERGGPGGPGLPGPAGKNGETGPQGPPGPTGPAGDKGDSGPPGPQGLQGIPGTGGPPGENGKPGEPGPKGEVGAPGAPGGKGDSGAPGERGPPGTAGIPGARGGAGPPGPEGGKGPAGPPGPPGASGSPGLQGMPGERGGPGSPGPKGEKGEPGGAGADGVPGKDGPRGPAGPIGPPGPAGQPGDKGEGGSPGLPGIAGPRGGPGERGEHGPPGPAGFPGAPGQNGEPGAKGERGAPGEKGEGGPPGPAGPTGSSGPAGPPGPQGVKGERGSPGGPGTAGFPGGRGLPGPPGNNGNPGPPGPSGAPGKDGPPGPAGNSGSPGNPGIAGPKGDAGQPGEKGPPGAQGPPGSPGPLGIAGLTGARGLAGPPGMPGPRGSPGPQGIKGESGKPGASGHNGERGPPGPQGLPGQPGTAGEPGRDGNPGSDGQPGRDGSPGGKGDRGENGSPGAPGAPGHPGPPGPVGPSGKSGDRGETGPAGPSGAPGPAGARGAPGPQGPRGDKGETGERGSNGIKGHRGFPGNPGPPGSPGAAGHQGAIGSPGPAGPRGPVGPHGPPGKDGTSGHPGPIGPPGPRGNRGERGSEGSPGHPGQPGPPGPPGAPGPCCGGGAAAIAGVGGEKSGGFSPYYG
# Test: In vivo MRI of the aortic wall in a murine model of vascular remodelling
# Conditions: ApoE−/− mice after aortic injury and 12 weeks high-fat diet, i.v. 0.2 mmol/kg, LGE MRI at 3 T up to 2 h post-injection
# Description: Male ApoE^−/− mice were bred in-house and underwent surgery at 8–10 weeks of age (n = 6). Mice were anesthetised with 4% isoflurane mixed with 1% medical oxygen and anaesthesia was maintained at 2% during the surgery as previously reported. Briefly, mice underwent a laparotomy to expose the abdominal aorta, renal and iliac arteries. Two ligatures were inserted around the aorta (surgical silk, size 4–0, Aragó, Zaragoza, Spain), the first below the renal arteries and the second above the iliac bifurcation. A 30 G needle was introduced into the abdominal aorta at the level of the iliac bifurcation, via an aortic puncture. 1 mL of saline was infused into the aorta in three boluses. Finally, the needle was removed, and the puncture was repaired. The muscle and skin incisions were sutured (5-0 Vicryl, Ethicon Inc, Somerville, NJ), and the animals were allowed to recover. Mice were switched to a high-fat diet (HFD) containing 21% fat from lard and 0.15% (wt/wt) cholesterol (Special Diets Services, Witham, United Kingdom), on day 2 post-surgery for 12 weeks prior to the imaging experiments.
# Anaesthesia was induced with 4% and maintained with 1–2% isoflurane during the MRI experiments. Mice (n = 3 per group) were placed supine on a single-loop surface coil (diameter = 47 mm) and the abdominal aorta was imaged up to 2 h post-injection of the monomeric (i.v. 0.2 mmol/kg, 0.2 mmol/kg Gd), the next day with the corresponding tetrameric collagen-binding probe (i.v 0.2 mmol/kg, 0.8 mmol/kg Gd) and the 3rd day using the scrambled probes (n = 2–3 per probe; i.v. 0.2 mmol/kg). This timeline ensures complete washout of one probe from the tissue before the administration of another probe. […]
row,Substance,signal enhancement of the remodelled aortic wall (in words)
1,"Ac-C-RDKKVAEQS [[Gd-DOTAMA]4-SccCBP1, scrambled tetrameric Gd probe (Ac-C-…), negative control]",No signal enhancement
2,"Ac-C-TEFPLRMRDWLKN [[Gd-DOTAMA]4-CBP2, tetrameric probe: tri-lysine scaffold bearing four Gd-DOTAMA units conjugated at the N-terminus of CBP2]",stronger enhancement at 60 min compared with corresponding monomeric probes
